Test results taken from patent US20090264383A1, “Inhibitor of Adenylyl Cyclase for Treating a Disorder of the Circadian Rhythm” (Medical Research Council, priority 2006, published 2009).
“Also recorded” adds a separate entry of the source.

Tests used:
[1] = system: NIH 3T3 cells; test: Circadian gene expression in NIH 3T3 cells transfected with mBmal1::luc reporter; format: cell-based, mouse; details: for effect on circadian period: 3T3 fibroblasts; for effect on circadian gene expression / output: mBmal1::luc reporter
Description: Inhibition of the Gsα-binding site of AC caused a dose-dependent, reversible, dampening of circadian gene expression from Per1::luciferase organotypic SCN slice cultures, monitored by photomultiplier tubes. To determine the generality of this effect, we examined 3-T3 fibroblast cells. Abrogation of the endogenous oscillation of cAMP concentration stopped circadian gene expression as reported by Bmal1::luciferase reporter constructs P-site AC inhibition prolonged fibroblast period from ca. 21 hours to ca. 30 hours.
(§1) Recordings of luciferase activity from organotypic slices of SCN or peripheral tissues were made from 5-7 day old pups from PER2::LUC and, Per1::LUC mice using either photomultiplier assemblies for whole tissue emission or CCD camera for single SCN cell imaging (Hamamatsu Photonics Ltd, U.K.) as described May Wood et al 2006 Curr. Biol. Vol. 16 pp 599-605. cAMP-ELISA kit was purchased from R&D systems (Wiesbaden, Germany). NIH 3T3 cells were cultured as described (Kume et al 1999 Cell Vol 98 pp 193-205) and transfected using Genejuice (Novagen, San Diego, Calif.). All drugs were purchased from Sigma-Aldrich (Poole, UK) except PKA/Epac-active cAMP analogues (Axxora; Grünberg; Germany) and KT5720 (Calbiochem, Nottingbam, UK). Drugs were solubilized in medium or dimethylsulfoxide (DMSO) to make stock solutions 50-1000× the working solutions. [DMSO] was never greater than 0.4%. RNA-interference against Epac1 and Epac 2 used pre-validated sequences as instructed (Validated Stealth RNAi, Invitrogen, CA). Western Blots were performed as Reddy et al (2006 Curr. Biol. Vol 16 oo 1107-15). Behavioural rhythms, recorded by running wheel and passive infra-red movement detectors, were analysed in Clocklab (Actimetrics, Evanston Ill.). Central cannulae directed stereotaxically at the SCN and sub-cutaneous minipumps (Alzet® model 1002 pump and brain infusion kit II) for drug infusion were fitted as instructed (Durect Corp. Cupertino, Calif.).
(§2) Statistical analysis was performed using Prism GraphPad™ and Statview™. Periods were calculated over ≧3 days recoding For comparative purposes, transcriptional amplitude from PMT recordings was calculated as 100× (post-treatment emission peak-trough/pre-treatment peak-trough). In all cases error bars indicate SEM about the mean where n≧3.

[2] = Water solubility; format: physicochemical
[3] = system: intact human neutrophils; details: Simchowitz et al 1983; cited from earlier work
[4] = system: Clock mutant SCN; test: Circadian period in Clock heterozygous and homozygous mutant SCN; format: cell-based, mice
Description: as §1, with “Central cannulae directed stereotaxically at the SCN and sub-cutaneous minipumps (Alzet® model 1002 pump and brain infusion kit II) for drug infusion were fitted as instructed (Durect Corp. Cupertino, Calif.).” left out

[5] = system: peripheral tissues; test: Circadian recording in organotypic cultures of peripheral tissues from mPER2::LUC mice; format: cell-based
Description: as §1, with “RNA-interference against Epac1 and Epac 2 used pre-validated sequences as instructed (Validated Stealth RNAi, Invitrogen, CA). Western Blots were performed as Reddy et al (2006 Curr. Biol. Vol 16 oo 1107-15).” left out, “Central cannulae directed stereotaxically at the SCN and sub-cutaneous minipumps (Alzet® model 1002 pump and brain infusion kit II) for drug infusion were fitted as instructed (Durect Corp. Cupertino, Calif.).” left out
Statistical analysis was performed using Prism GraphPad™ and Statview™. Periods were calculated over ≧3 days recoding For comparative purposes, transcriptional amplitude from PMT recordings was calculated as 100× (post-treatment emission peak-trough/pre-treatment peak-trough). […]

[6] = system: cAMP levels; test: cAMP ELISA in synchronised NIH 3T3 fibroblast cultures; format: cell-based, mouse; details: for cAMP levels: MDL at highest doses used
Description: (§3) Per1::luciferase and; Per2-luc transgenic mice were used. For organotypic slice culture, brains were removed from pups 5-10 days old and sectioned at 300 um with a McIlwain “Tissue Chopper.” Slices were sorted and trimmed to contain principally SCN tissue and placed onto a Millipore membrane insert (PICMORG) for culture at 37° C. in 5% CO2 as described previously (Gainer et al, 1998).
as §1

[7] = system: SCN; test: Free-running period of wheel-running behaviour, THFA infused to SCN by minipump and central cannula; format: in vivo; details: chronic central THFA vs vehicle; continuous dim red light; nine mice
Description: (a) Representative double-plotted, actograms of (left) vehicle- and (right) THFA-treated mice entrained to a photoschedule of 12 hours light (shaded) and 12 hours dark and fitted with osmotic mini-pump and central cannula directed at SCN (asterisk) Mice were then released into continuous dim-red light and free-running period determined Note longer period in THFA-treated mice.
as §1, with “[DMSO] was never greater than 0.4%. RNA-interference against Epac1 and Epac 2 used pre-validated sequences as instructed (Validated Stealth RNAi, Invitrogen, CA). Western Blots were performed as Reddy et al (2006 Curr. Biol. Vol 16 oo 1107-15).” left out, “Central cannulae directed stereotaxically at the SCN and sub-cutaneous minipumps (Alzet® model 1002 pump and brain infusion kit II) for drug infusion were fitted as instructed (Durect Corp. Cupertino, Calif.).” left out

[8] = system: organotypic SCN slices; test: Bioluminescence recording of circadian gene expression in organotypic SCN slices (mPer1::luc / PER2::LUC); format: cell-based, mice; details: for effect on circadian period / effect on circadian amplitude / gene expression: wild-type mPer1::luc / PER2::LUC SCN slices; for synchrony of SCN neurons (CCD imaging): 1.0 μM MDL for over 7 days, PER2::LUC slice; for rescue of circadian gene expression in MDL-treated SCN slices: PER2-LUC SCN slices pre-treated with MDL (2.5 μM), Epac agonist 100 μM
Description: as §3
as §1, with “All drugs were purchased from Sigma-Aldrich (Poole, UK) except PKA/Epac-active cAMP analogues (Axxora; Grünberg; Germany) and KT5720 (Calbiochem, Nottingbam, UK).” left out
as §2

[9] = system: circadian period; details: 0.3% lithium; 25% D2O; cited from earlier work
[10] = system: JNK phosphorylation; test: Western blot of 3T3 cell extracts (JNK and CREB phosphorylation); format: cell-based, mouse; details: for JNK phosphorylation (pJNK): 3T3 cells, MDL 5.0 μm 40 hours, Epac agonist 100 μM, 2 hours; for CREB phosphorylation (pCREB): 3T3 cells given MDL, Epac agonist
Description: Epac had no effect on CREB phosphorylation.
as §1

[11] = molecular target: adenylyl cyclase; details: irreversibly binds the Gsα site; cited from earlier work
[12] = system: NIH 3T3 cells; test: Luciferase expression from control non-circadian promoter in NIH 3T3 cells; format: cell-based, mouse
[13] = system: circadian clock; details: administered in the evening; cited from earlier work

Compound: 9-(Tetrahydro-2′-furyl)adenine [THFA]
- probable maximum period increase ([1]; 1.2 mM THFA): approximately 9 hours
- circadian period ([1]; 1.2 mM THFA, untreated about 21 hours): about 30 hours
- effect on circadian period [1]: Dose-dependent saturable period lengthening
- circadian period ([1]; fibroblasts transfected with mBmal::luc reporter, lengthening from ca. 21): ~31 h
- water solubility [2]: water-soluble; also recorded: most readily water soluble
- toxicity [3]: non-toxic
- effect on circadian period [4]: prolongs circadian period; also recorded: additive to that of the Clock mutation
- effect on circadian period ([5]; 2 mM THFA, all peripheral tissues tested): lengthens period; also recorded: dramatic increase in circadian period; also recorded: increases period in all tissues tested
- basal cAMP levels ([6]; THFA): maintains basal levels; also recorded: without affecting its nadir; also recorded: did not alter basal levels of cAMP
- peak cAMP levels ([6]; THFA): suppresses peak levels; also recorded: reduces the detectable, endogenous, biphasic rise in cAMP; also recorded: attenuated peak levels
- free-running circadian period [7]: lengthens circadian period; also recorded: lengthening of free-running period; also recorded: significantly (p<0:01, t-test) lengthened
- saturating concentration of period lengthening (one-site inhibition model) ([8]; SCN slices): around 2 mM
- circadian period under combined AC and JNK inhibition ([8]; THFA together with JNK inhibition, SCN and fibroblast clockwork): around 36 hours
- period after removal of the drug ([8]; in vitro, after chronic incubation with THFA): approx. 24 hours
- circadian period ([8]; mPer1::luc and mPER2-LUC SCN slices, dose-dependent increase from ca. 24): ~31 h
- effect on circadian period [8]: reversible increase of circadian period; also recorded: Extended circadian period; also recorded: Reversible period lengthening; also recorded: period effect; also recorded: rapidly reversible upon drug washout; also recorded: increased period in individual neurons

Compound: C[C@H]1O[C@@H](n2cnc3c(N)ncnc32)C[C@@H]1O [2′,5′-dideoxyadenosine, 2′,5′-Dideoxyadenosine]
- solubility ([2]; water, read-out: water soluble up to): ≥ 125 mM
- effect on circadian period [8]: Reversible period lengthening; also recorded: Period was lengthened

Compound: [2H]O[2H] [D2O]
- lengthening of period [9]: approximately 5%

Compound: CC(C)Cn1c(=O)n(C)c(=O)c2[nH]cnc21 [IBMX]
- effect on circadian period [1]: lengthened period in fibroblasts
- effect of THFA combined with IBMX on circadian period ([1]; THFA 1 mM plus IBMX 300 uM): did not enhance the effect of THFA

Compound: CCCCCCOC(=O)[C@]1(O)C[C@@H]2O[C@@]1(C)n1c3ccccc3c3c4c(c5c6ccccc6n2c5c31)C(=O)NC4 [KT5720]
- effect on circadian amplitude / gene expression [8]: no significant effect
- effect on circadian period [8]: no significant effect

Compound: Cl.c1ccc(C2CCCC2NC2=NCCCCCCCCCCC2)cc1 (stereo not drawn) [MDL-12,330A]
- effect on circadian gene expression / output [1]: dose dependent suppression of circadian gene expression
- effect on circadian gene expression / output ([1]; listed as MDL): Reversible, dose-dependent suppression of circadian output
- JNK phosphorylation (pJNK) [10]: decline in JNK phosphorylation
- IC50 [11]: 250 µM
- effect on circadian output ([5]; organotypic kidney slices from mPER-2-LUC mice): Reversible, dose-dependent suppression of circadian output
- cAMP levels [6]: loss of measurable cAMP
- cAMP levels ([6]; listed as MDL): suppressed cAMP levels to below the sensitivity of detection
- luciferase expression from control, non-circadian promoter [12]: no effect on luciferase expression
- synchrony of SCN neurons (CCD imaging) [8]: desynchronisation
- synchrony of SCN neurons (CCD imaging) ([8]; listed as MDL): became desynchronised
- effect on circadian amplitude / gene expression [8]: reversible suppression of circadian protein expression; also recorded: reversible, dose-dependent dampening of circadian gene expression; also recorded: loss of circadian amplitude; also recorded: dampens transcriptional amplitude
- effect on circadian period [8]: not affected
- effect on circadian amplitude / gene expression ([8]; listed as MDL): rapid, dose-dependent dampening of circadian cycling; also recorded: lost circadian amplitude

Compound: COc1ccc2[nH]cc(CCNC(C)=O)c2c1 [Melatonin]
- phase resetting effect on the circadian clock [13]: approximately 30 minutes/day

Compound: COC1C2OP(O)(=S)OCC2OC1n1c(Sc2ccc(Cl)cc2)nc2c(N)ncnc21 (stereo not drawn) [Sp-8-CPT-2′-O-Me-cAMPS]
- CREB phosphorylation (pCREB) ([10]; listed as Epac): no effect
- CREB phosphorylation (pCREB) ([10]; listed as Epac agonist): not pCREB
- JNK phosphorylation (pJNK) ([10]; listed as Epac): significant increase in JNK activation
- JNK phosphorylation (pJNK) ([10]; listed as Epac agonist): reverses the decline in JNK phosphorylation; also recorded: increased pJNK
- rescue of circadian gene expression in MDL-treated SCN slices [8]: dramatically restored circadian output
- rescue of circadian gene expression in MDL-treated SCN slices ([8]; listed as Epac agonist): can be rescued; also recorded: acute activation and synchronisation of cellular circadian gene expression; also recorded: significantly increased luciferase activity; also recorded: transiently activated and re-synchronised circadian gene expression
- effect on circadian amplitude / gene expression [8]: no significant effect
- effect on circadian period [8]: no significant effect
